Assay results from PMC9098890 (European Journal of Medicinal Chemistry, 2022).

Assays:
[1] = tested on: SARS-CoV-2 (WIV04); experiment: Anti-viral activity assay; assay type: cell-based
[2] = target: SARS-CoV-2 3CL^Pro (Severe acute respiratory syndrome coronavirus 2, UniProt P0DTD1); experiment: Enzymatic inhibitory activity assay; assay type: biochemical; conditions: IC50 compared with positive control 1

Compound	reduction of SARS-CoV-2 viral RNA [1]	further results
CC(C)C[C@H](NC(=O)/C=C/c1ccccc1)C(=O)N[C@H](C=O)C[C@@H]1CCNC1=O [Compound 10b, (S)-2-cinnamamido-4-methyl-N-((S)-1-oxo-3-((S)-2-oxopyrrolidin-3-yl)propan-2-yl)pentanamide]	more than 2 logs	
CCCC[C@H](NC(=O)/C=C/c1ccccc1)C(=O)N[C@H](C=O)C[C@@H]1CCNC1=O [Compound 10c, (S)-2-cinnamamido-N-((S)-1-oxo-3-((S)-2-oxopyrrolidin-3-yl)propan-2-yl)hexanamide]	more than 2 logs	
CC(C)C[C@H](NC(=O)/C=C/c1ccccc1)C(=O)N[C@H](C=O)C[C@@H]1CCCNC1=O [Compound 10g, (S)-2-cinnamamido-4-methyl-N-((S)-1-oxo-3-((S)-2-oxopiperidin-3-yl)propan-2-yl)pentanamide]	more than 2 logs	
CC(C)(C)[C@H](NC(=O)/C=C/c1ccccc1)C(=O)N[C@H](C=O)C[C@@H]1CCCNC1=O [Compound 10h, (S)-2-cinnamamido-3,3-dimethyl-N-((S)-1-oxo-3-((S)-2-oxopiperidin-3-yl)propan-2-yl)butanamide]	more than 2 logs	
CC(C)C[C@H](NC(=O)[C@@H](NC(=O)/C=C/c1ccccc1)C(C)C)C(=O)N[C@H](C=O)C[C@@H]1CCCNC1=O [Compound 14c, (S)-2-((S)-2-cinnamamido-3-methylbutanamido)-4-methyl-N-((S)-1-oxo-3-((S)-2-oxopiperidin-3-yl)propan-2-yl)pentanamide]		antiviral activity against SARS-CoV-2 (in words) [1]: no antiviral activity
CC(C)C[C@H](NC(=O)[C@H](CC1CCCCC1)NC(=O)/C=C/c1ccccc1)C(=O)N[C@H](C=O)C[C@@H]1CCCNC1=O [Compound 14d, (S)-2-((S)-2-cinnamamido-3-cyclohexylpropanamido)-4-methyl-N-((S)-1-oxo-3-((S)-2-oxopiperidin-3-yl)propan-2-yl)pentanamide]	more than 2 logs	
CC(C)C[C@H](NC(=O)[C@@H](NC(=O)c1ccc2ccccc2c1)C(C)C)C(=O)N[C@H](C=O)C[C@@H]1CCCNC1=O [Compound 17i, N-((S)-3-methyl-1-(((S)-4-methyl-1-oxo-1-(((S)-1-oxo-3-((S)-2-oxopiperidin-3-yl)propan-2-yl)amino)pentan-2-yl)amino)-1-oxobutan-2-yl)-2-naphthamide]	more than 2 logs	
CC(C)C[C@H](NC(=O)[C@@H](NC(=O)c1ccc(Cl)cc1)C(C)C)C(=O)N[C@H](C=O)C[C@@H]1CCCNC1=O [Compound 17w, 4-chloro-N-((S)-3-methyl-1-(((S)-4-methyl-1-oxo-1-(((S)-1-oxo-3-((S)-2-oxopiperidin-3-yl)propan-2-yl)amino)pentan-2-yl)amino)-1-oxobutan-2-yl)benzamide]		increased inhibitory potency versus positive control 1 [2]: 4 fold
